The inhibition is the drop in the measured response relative to a control, in per cent.

For test [1], the system named is normal human dermal fibroblasts. Nature of the test: Gene expression of dermal matrix markers in fibroblasts (qPCR). Format: cell-based. The conditions noted are these: 5 ng/ml, 48 h. As to the method:
Normal human dermal fibroblasts were incubated for 48 hours in the presence of holy basil extract obtained according to Example 1 at 0.001% and 0.005% dm or TGFβ1 at 5 ng/ml, the positive assay reference.
Gene expression of Collagen I, Elastin, Dermatopontin and MMP1 (Matrix-Metalloproteinase-1) was assessed by real-time quantitative PCR.
Results were statistically analyzed using a one-factor analysis of variance (ANOVA), followed by a Dunnett's post-test.
For orientation: Real-time PCR tracks product formation cycle by cycle.

Test [2] concerns normal human keratinocytes. Nature of the test: H2O2-induced ROS production in normal human keratinocytes. The class given is cell-based. The conditions noted are these: 24 h, H2O2 100 μM 20 min. The protocol:
Quercetin at 10 μM or Vitamin C at 500 μM, before incorporation of the H2DCF-DA probe. Keratinocytes were then stimulated with 100 μM hydrogen peroxide (H2O2) for 20 minutes. ROS production was assessed by measuring the fluorescence emitted by the probe on contact with ROS. Results were statistically analyzed using a one-way ANOVA followed by a Tukey test.

The test system of test [3] is normal human keratinocytes. Nature of the test: Lipid peroxidation in keratinocytes under cumene hydroperoxide stress. Format: cell-based. The conditions noted are these: 200 μM, 24 h, Cumene 200 μM. As to the method: (§1) Normal human keratinocytes, on the one hand, and normal human fibroblasts, on the other, were treated for 24 hours with the 0.001% and 0.005% dm holy basil extract obtained according to example 1 or with the antioxidant reference, vitamin E at 200 μM. Oxidative stress was then induced by incubation for 1 hour in the presence of cumene hydroperoxide at 200 or 50 μM.
(§2) Results were statistically analyzed using a one-way ANOVA followed by a Tukey test.

Test [4] concerns normal human fibroblasts. Nature of the test: Lipid peroxidation in fibroblasts under cumene hydroperoxide stress. The conditions noted are these: 200 μM, 24 h, Cumene 50 μM. Format: cell-based. As to the method:
as §1, §2

Test [5] relates to normal human keratinocytes. Nature of the test: IL8 produced by keratinocytes under PMA-induced inflammatory stress (ELISA). Format: cell-based. The conditions noted are these: 24 h pre-incubation, PMA 10 μg/ml 24 h. The protocol:
Normal human keratinocytes were pre-incubated for 24 hours in the presence of holy basil extract obtained according to Example 1 at 0.001%, 0.005% or 0.01% dm or dexamethasone at 0.1 μM, an anti-inflammatory reference. The cells were then stimulated by 24-hour treatment in the presence of 10 μg/mL PMA (Phorbol-Myristate-Acetate).
At the end of treatment, the IL8 produced was quantified by ELISA assay in the culture supernatants.
Results were analyzed statistically using the Student t-test.
For orientation: In an ELISA, binding on a coated surface is turned into a signal by an enzyme label.

The subject of a further test is reconstructed epidermis. Nature of the test: IL1α produced by PMA-stimulated reconstructed epidermis. The class given is cell-based, human. As to conditions: systemic, 24 h pre-incubation, PMA 0.5 μg/ml 24 h. As to the method:
[…] After 24 hours pre-incubation, the epidermis was stimulated with 0.5 μg/mL PMA and incubated again for 24 hours.
Culture supernatants were collected, an IL1α assay was performed on the one hand and, on the other, these supernatants (conditioned media) were plated onto cultures of normal human dermal fibroblasts.
Results were statistically analyzed using an ANOVA followed by a Tukey test.

Test [6] relates to normal human epidermal keratinocytes. Nature of the test: γH2AX expression (DNA double-strand breaks) in keratinocytes under camptothecin stress. Format: cell-based. As to conditions: reference, 24 h pre-incubation; camptothecin 1 h. The protocol:
Normal human epidermal keratinocytes were pre-incubated for 24 hours in the presence of the holy basil extract obtained in Example 1 at 0.001% and 0.005% dm or the reference nicotinamide, prior to 1-hour exposure to camptothecin. Camptothecin is a genotoxic compound, a toposiomerase I inhibitor, used for the induction of DNA double-strand breaks. Double-strand breaks were detected by immunostaining of γH2AX (phosphorylation of histone H2AX which intervenes early in response to double-strand breaks) and quantified by image analysis. Results were statistically analyzed using an ANOVA followed by a Tukey test.

The subject of test [7] is normal human keratinocytes. Nature of the test: Menadione-induced ROS production in keratinocytes. Format: cell-based. The conditions noted are these: 10 mM, 24 h, Menadione 50 μM. The protocol:
(§3) Normal human keratinocytes, on the one hand, and normal human fibroblasts, on the other, were treated for 24 hours with the 0.001% and 0.005% dry matter (dm) holy basil extract obtained according to Example 1 or with 10 mM N-Acetyl Cysteine (NAC), a ROS scavenger molecule used as an antioxidant reference. […] ROS were labeled with the CellRox® probe; intracellular fluorescence, proportional to the amount of ROS, was measured. Results were statistically analyzed using a one-factor ANOVA, followed by a Dunnett's test.

Test [8] deals with normal human fibroblasts. Nature of the test: Menadione-induced ROS production in fibroblasts. Format: cell-based. The conditions noted are these: 10 mM, 24 h, Menadione 200 μM. The protocol: as §3
In test [9] the test system is normal human fibroblasts. Nature of the test: Glutathione (GSH) content in fibroblasts under menadione stress. The class given is cell-based. The conditions noted are these: 10 mM, 24 h; Menadione 25 μM 4 h. As to the method:
Normal human fibroblasts were treated for 24 hours with 0.001% and 0.005% dm holy basil extract obtained according to Example 1 or with the antioxidant reference, 10 mM NAC. Oxidative stress was then induced by 4-hour incubation in the presence of 25 μM menadione. GSH stock was monitored using the fluorescent probe Monochlorobimane (Mbi); intracellular fluorescence, proportional to the amount of GSH, was measured.

Test [10] has as its system normal human epidermal keratinocytes. Nature of the test: Aquaporin-3 production in keratinocytes (immunostaining). The conditions noted are these: reference, 24 h. The class given is cell-based. As to the method:
Normal human epidermal keratinocytes were incubated for 24 hours in the presence of the holy basil extract obtained in Example 1 at 0.001% and 0.005% dm or retinoic acid, positive reference. Aquaporin-3 expression was assessed by immunostaining and quantified by image analysis.

As to “TGFB1: TGFβ1 at 5 ng/ml, the positive assay reference”, in [1], the “Collagen I gene expression (Relative quantity)” value came out at 10.86 ± 4.17, the “Dermatopontin gene expression (Relative quantity)” value was 43.17 ± 5.97, the “Elastin gene expression (Relative quantity)” value was determined as 67.5 ± 20.55 and the “MMP1 gene expression (Relative quantity)” value turned out to be 0.33 ± 0.13. In [1] (vs control cells), the “Collagen I gene expression (% of induction)” value is “+786%”, the “Dermatopontin gene expression (% of induction)” value was “+5001%”, the “Elastin gene expression (% of induction)” value was “+8148%” and the “MMP1 gene expression (% of induction)” value is reported as −65%.

Take `O=c1c(O)c(-c2ccc(O)c(O)c2)oc2cc(O)cc(O)c12` [Quercetin]: the “ROS (Fluorescence units)” value in [2] (10 μM) is given as 17453.8 ± 2880.6 Fluorescence units. The inhibition at 10 µM in test [2] (Homo sapiens, Keratinocyte, 10 μM) turned out to be 85%.

As for vitamin E, the “Inhibition of lipid peroxidation” value in test [3] came out at 93%; with normal human fibroblasts [4], 71%. Moreover, the results for the “Peroxidized lipids (Arbitrary units)” value (in test [3]; in the test on normal human fibroblasts [4]) were 4485.3 ± 43.3 Arbitrary units and 11413.4 ± 69.4 Arbitrary units, respectively.

Take `C[C@@H]1C[C@H]2[C@@H]3CCC4=CC(=O)C=C[C@]4(C)[C@@]3(F)[C@@H](O)C[C@]2(C)[C@@]1(O)C(=O)CO` [dexamethasone]: the “IL8” value in test [5] (0.1 μM) is 4194.4 ± 814.1 pg/mL. Besides, the inhibition at 0.1 µM in [5] (Homo sapiens, Keratinocyte, read-out: Inhibition of IL8 production) is 40%. Further, the “Interleukine-1 alpha” value in the test on reconstructed epidermis (10 μM) was determined as 334 ± 41 pg/mL. Also, in the test with reconstructed epidermis (Homo sapiens, read-out: Inhibition of IL1α release), the inhibition at 10 µM was found to be 48%.

Consider `O=C1O[C@H]([C@@H](O)CO)C(O)=C1O` [Vitamin C], for which, in test [2] (500 μM), the “ROS (Fluorescence units)” value came to 7165.2 ± 586.2 Fluorescence units. In addition, the inhibition at 500 µM in test [2] (Homo sapiens, Keratinocyte, 500 μM) worked out at 102%.

On to `NC(=O)c1cccnc1` [Nicotinamide, nicotinamide], for which, in [6], the “Inhibition of γH2AX expression” value is listed as −106% and the “γH2AX, Cy5 (Intensity)” value is 3052.8 Intensity.

As for `CC(=O)N[C@@H](CS)C(=O)O` [NAC, N-Acetyl Cysteine], the figures for the “ROS (Arbitrary units)” value (in test [7]; in the test with normal human fibroblasts [8]) were 2490 ± 94.3 Arbitrary units and 3114 ± 14.2 Arbitrary units, respectively. The inhibition at 10000 µM came to 100% in test [7] (Homo sapiens, Keratinocyte) and 50% with normal human fibroblasts [8] (Homo sapiens, Fibroblast). Further, the “GSH (Arbitrary units)” value with normal human fibroblasts [9] was found to be 4997.7 ± 947.2 Arbitrary units. In the test with normal human fibroblasts [9], the “Increase of GSH” value amounted to 44%.

Turning to `CC1=C(/C=C/C(C)=C/C=C/C(C)=C/C(=O)O)C(C)(C)CCC1` [Retinoic acid, retinoic acid], in [10], the “Aquaporin-3 (% of positive cells)” value was 0.323 ± 0.004 % of positive cells and the “Increase of Aquaporin-3” value was “+45%”.

These data come from US20240091294A1, “Extract of Top Growth of Holy Basil, and Cosmetic or Dermatological Compositions Containing Same” (Laboratoires Expanscience, priority 2021, published 2024).
